In patent publication US7534762B2, “Polypeptides having antimicrobial activity and polynucleotides encoding same” (Novozymes A/S, priority 2005, dated 2009):

Experiments:
Experiment in all cases: Radial diffusion assay
Format in all cases: cell-based
[1] = test system: Acinetobacter anitratus (ATCC 17903); conditions: TCA precipitated culture supernatant, 100 x concentrated; 10 units = 1 mm diameter clear zone around the 3 mm sample well
Description: (§1) The supernatants described above in Example 4 were analyzed in a radial diffusion assay following a previously published protocol for detection of antimicrobial activity (Lehrer et al., (1991) Ultra sensitive assays for endogenous antimicrobial polypeptides J Immunol Methods 137: 167-173). Target bacteria (10^6 colony forming units (CFU)) were added to 10 ml of underlay agarose (1% low electro-endosmosis agarose, 0.03% Trypticase soy broth, 10 mM sodium phosphate, pH 7.4, 37 degrees Celsius). Suspension was solidified on an INTEGRID Petri Dish (Becton Dickinson Labware, NJ). A 3 mm Gel Puncher was used to make holes in the underlay agarose (Amersham Pharmacia Biotech, Sweden). Samples were added to the holes and incubated at 37 degrees Celsius, 3 hours. An overlay was poured on top and the plate was incubated overnight (LB media, 7.5% Agar). Antimicrobial activity was seen as bacterial clearing zones around the wells. Living cells was counterstained by adding 10 ml, 0.2 mM MTT (3-(4,5-Dimethylthiazol-2-yl)-2,5-diphenyltetrazolium bromide Thiazolyl blue). All standard protocols have been described elsewhere (Sambrook, Fritsch, and Maniatis, 1989). An electronic picture is taken. The bacterial growth inhibition is seen as clearing zones, which are measured to the nearest 0.1 mm and subtracted the diameter of the hole. The results are shown as zones of inhibition of native samples (Table 3) and concentrated samples (Table 4) against a range of test strains: • A: Staphylococcus simulans (ATCC 11631) • B: Staphylococcus carnosus (ATCC 51365) • C: Streptococcus hyointestinalis (ATCC 49169) • D: Bacillus subtilis (ATCC 23857) • E: Enterococcus saccharolyticus (ATCC 43076) • F: Escherichia coli (ATCC 10536) • G: Acinetobacter anitratus (ATCC 17903) • H: Erwinia chrysanthemi (ATCC 11663) • J: Pseudomonas boreopolis (ATCC 15452)
(§2) Concentration of samples was performed by precipitation of 45 ml culture supernatant with 2.5 ml 100% TCA and resuspension of the pelleted precipitate in 450 μl resuspension buffer (100 mM Tris pH 8, 100 mM NaCl).

[2] = test system: Bacillus subtilis (ATCC 23857); conditions: 10 units = 1 mm diameter clear zone around the 3 mm sample well
Description: as §1, §2

[3] = test system: Enterococcus saccharolyticus (ATCC 43076); conditions: 10 units = 1 mm diameter clear zone around the 3 mm sample well
Description: as §1, §2

[4] = test system: Erwinia chrysanthemi (ATCC 11663); conditions: TCA precipitated culture supernatant, 100 x concentrated; 10 units = 1 mm diameter clear zone around the 3 mm sample well
Description: as §1, §2

[5] = test system: Escherichia coli (ATCC 10536); conditions: TCA precipitated culture supernatant, 100 x concentrated; 10 units = 1 mm diameter clear zone around the 3 mm sample well
Description: as §1, §2

[6] = test system: Pseudomonas boreopolis (ATCC 15452); conditions: TCA precipitated culture supernatant, 100 x concentrated; 10 units = 1 mm diameter clear zone around the 3 mm sample well
Description: as §1, §2

[7] = test system: Staphylococcus carnosus (ATCC 51365); conditions: 10 units = 1 mm diameter clear zone around the 3 mm sample well
Description: as §1, §2

[8] = test system: Staphylococcus simulans (ATCC 11631); conditions: TCA precipitated culture supernatant, 100 x concentrated; 10 units = 1 mm diameter clear zone around the 3 mm sample well
Description: as §1, §2

[9] = test system: Streptococcus hyointestinalis (ATCC 49169); conditions: 10 units = 1 mm diameter clear zone around the 3 mm sample well
Description: as §1, §2

[10] = TCA precipitated culture supernatant, 100 x concentrated
[11] = native culture supernatant of recombinant A. oryzae clone

Substance	zone of inhibition, test strain G [1] [units]	zone of inhibition, test strain D [2, 10] [units]	zone of inhibition, test strain D [2, 11] [units]	zone of inhibition, test strain E [3, 10] [units]	zone of inhibition, test strain E [3, 11] [units]	zone of inhibition, test strain H [4] [units]	zone of inhibition, test strain F [5] [units]	zone of inhibition, test strain J [6] [units]	zone of inhibition, test strain B [7, 10] [units]	zone of inhibition, test strain B [7, 11] [units]	zone of inhibition, test strain A [8] [units]	zone of inhibition, test strain C [9, 10] [units]	zone of inhibition, test strain C [9, 11] [units]
Marinasin 1B: Arenicola marina antimicrobial polypeptide, amino acids 1 to 49 of SEQ ID NO: 8, expressed in Aspergillus oryzae (MKFFLPIMIALAFAAVAMATADTEPVEPEEELSIMLPFVEDDLLEKPIP; listed as Arenicola marina)	26	28	10	30	9	25	25	28	25	21	22	22	10
Marinasin 2A: Arenicola marina antimicrobial polypeptide, amino acids 1 to 46 of SEQ ID NO: 12, expressed in Aspergillus oryzae (MNQITLLMLLVAVAVMATVTGQSLDDESDVENVSQPEQRGWCWQWT; listed as Arenicola marina)	39	38	16	41	14	40	25	39	35	26	34	35	12
Marinasin 4: Arenicola marina antimicrobial polypeptide, amino acids 1 to 45 of SEQ ID NO: 22, expressed in Aspergillus oryzae (MKPIILLMLLVAVVVMATVTAEPLDEESDVEIVSQPEQRIPCWTP; listed as Arenicola marina)	6	32	32	68	43	0	0	0	81	60	14	59	54
Marinasin 5: Arenicola marina antimicrobial polypeptide, amino acids 1 to 49 of SEQ ID NO: 24, expressed in Aspergillus oryzae (MKFLLPLMVVMAFAAVAMATADTEPVEREEGVFIMLPFVEDDMLEKPIL; listed as Arenicola marina)	26	25		23		26	19	22	13		22	24	
Marinasin 6: Arenicola marina antimicrobial polypeptide, amino acids 1 to 44 of SEQ ID NO: 26, expressed in Aspergillus oryzae (MTTLLLMFGVAIVVLATVAAVPLQDDDVLDPSGLVEGETRGRSC; listed as Arenicola marina)			39		40								45
